IC50 data for 33 compounds are collected here from US6130229A, “Tricyclic compounds having activity as RAS-FPT inhibitors” (Schering Corporation, priority 1997, dated 2000).

SMILES strings stand for the structures. Some results are limits rather than exact numbers.

The target in the test is farnesyl protein transferase. As to the kind of experiment: Inhibition of farnesyl protein transferase (test of WO 95/10514). The test is classed as biochemical. Conditions: percent inhibition relative to DMSO vehicle control, IC50 estimated. An excerpt:
The compounds of the invention can be tested by standard methods, for example by those published in published PCT application WO 95/10514 published Apr. 20, 1995 (starting at page 61), the disclosure of which is hereby incorporated herein by reference. Particularly relevant assays and studies include In vitro enzyme assays, Cell-Based Assays, Cell Mat Assays, and In Vivo Anti-Tumor Studies.
Such Assays and Studies indicate that compounds of the Formula I above are selective inhibitors of Ras-FPT and can be used as anti-tumor agents. The following Table presents IC50 values obtained in the test for Inhibition of farnesyl protein transferase, reported in published PCT application WO 95/10514. Percent inhibition was calculated relative to the DMSO vehicle control, and an IC50 value was estimated.
Regarding `O=C(Cc1cc[n+]([O-])cc1)N1CCC(=C2c3ccc(Cl)cc3OCc3cc(Br)cnc32)CC1` [Example 4, 4-(3-Bromo-8-chloro-5,11-dihydro[1]benzoxepino[4,3-b]pyridin-11-ylidene)-1-(4-pyridine-acetyl)piperidine N1-oxide], the IC50 was 0.11 µM.

Take `CC(C)(C)OC(=O)N1CCC(CC(=O)N2CCC(=C3c4ccc(Cl)cc4S(=O)(=O)Cc4cccnc43)CC2)CC1` [Example 27]: the half-inhibitory concentration (IC50) is more than 1.2 µM.

Regarding `O=C(Cc1cc[n+]([O-])cc1)N1CCC(=C2c3cc(Br)c(Cl)cc3OCc3cccnc32)CC1` [Example 7A, 4-(9-Bromo-8-chloro-5,11-dihydro[1]benzoxepino[4,3-b]pyridin-11-ylidene)-1-(4-pyridine-acetyl)piperidine N1-oxide], the IC50 was more than 0.4 µM.

For the compound `CSC(=NC#N)N1CCC(=C2c3ccc(Cl)cc3OCc3cccnc32)CC1` [Example 2], the half-maximal inhibitory concentration (IC50) is more than 0.14 µM.

Consider `NC(=O)N1CCC(CC(=O)N2CCC(=C3c4ccc(Cl)cc4S(=O)(=O)Cc4cccnc43)CC2)CC1` [Example 29, 4-[2-[4-(8-Chloro-5,11-dihydro-[1]benzothiepino[4,3-b]pyridin-11-ylidene)-1-piperidinyl]-2-oxoethyl]-1-piperidinecarboxamide-6,6-dioxide], for which the IC50 was more than 1.1 µM.

With `O=C(Cc1ccncc1)N1CCC(=C2c3ccc(Cl)cc3OCc3cccnc32)CC1` [Example 5, 4-(8-Chloro-5,11-dihydro[1]benz-oxepino[4,3-b]pyridin-11-ylidene)-1-(4-pyridine-acetyl)piperidine], the IC50 is 0.76 µM.

Consider `O=C(Cc1ccncc1)N1CCN(C2c3ccc(Cl)cc3SCc3cccnc32)CC1` (stereo not drawn) [Example 8, 4-(8-Chloro-5,11-dihydro-[1]benzothiepino[4,3-b]pyridin-11-yl)-1-(4-pyridinyl-acetyl)piperazine], for which the IC50 is 0.32 µM.

With `N#CN=C(NCc1ccc2c(c1)OCO2)N1CCC(=C2c3ccc(Cl)cc3SCc3cccnc32)CC1` [Example 20B], the IC50 is more than 0.113 µM.

As to `O=C(Cc1ccncc1)N1CCN(C2c3ccc(Cl)cc3S(=O)(=O)Cc3cccnc32)CC1` (stereo not drawn) [Example 16A, 4-(8-Chloro-5,11-dihydro-[1]benzothiepino[4,3-b]pyridin-11-yl)-1-(4-pyridine-acetyl)piperazine 6,6-dioxide], the IC50 is 1 µM.

In the case of `O=C(Cc1cc[n+]([O-])cc1)N1CCN(C2c3ccc(Cl)cc3OCc3cccnc32)CC1` (stereo not drawn) [Example 1, 4-(8-Chloro-5,11-dihydro[1]benzoxepino[4.3-b]pyridin-11-yl)-1-(4-pyridine-acetyl)-piperazine N1-oxide], the IC50 was 1.28 µM.

`CN1Cc2cccnc2C(N2CCN(C(=O)CC3CCN(C(=O)OC(C)(C)C)CC3)CC2)c2ccc(Cl)cc21` (stereo not drawn) [Example 38, 1,1-Dimethylethyl 4-[2-[4-(8-chloro-6,11-dihydro-6-methyl-5H-pyrido[3,2-c][1]benzazepin-11-yl)-1-piperazinyl]2-oxoethyl]-1-piperidine-carboxylate]: the IC50 is more than 3.6 µM.

Turning to `CN1CCC(CC(=O)N2CCC(=C3c4ccc(Cl)cc4SCc4cccnc43)CC2)CC1` [Example 26, 4-(8-Chloro-5,11-dihydro[1]benzothiepino[4,3-b]pyridin-11-ylidene)-1-(1-methyl-4-piperidine-acetyl)-piperidine], the IC50 was 1.79 µM.

In the case of `O=C(Cc1cc[n+]([O-])cc1)N1CCC(=C2c3ccc(Cl)cc3SCc3cccnc32)CC1` [Example 9B, 4-(8-Chloro-5,11-dihydro-[1]benzothiepino[4,3-b]pyridin-11-ylidene)-1-(4-pyridine-acetyl)piperidine N1-oxide], the IC50 was 0.52 µM.

`N#CNC(=NCc1ccncc1)N1CCN(C2c3ccc(Cl)cc3SCc3cccnc32)CC1` (stereo not drawn) [Example 19, 4-(8-Chloro-5,11-dihydro[1]benzothiepino[4,3-b]pyridin-11-yl)-N-cyano-N'-(4-pyridinylmethyl)-1-piperazine-carboximidamide]: the concentration for half-maximal inhibition (IC50) was 0.061 µM.

For the compound `CSC(=NC#N)N1CCN(C2c3ccc(Cl)cc3SCc3cccnc32)CC1` (stereo not drawn) [Example 18, Methyl 4-(8-chloro-5,11-dihydro-[1]benzothiepino[4,3-b]pyridin-11-yl)-N-cyano-1-piperazinecarboximidothioate], the IC50 was 0.3 µM.

With `CC1(C)c2cccnc2C(=C2CCN(C(=O)Cc3cc[n+]([O-])cc3)CC2)c2ccc(Cl)cc2S1(=O)=O` [Example 30, 4-(8-Chloro-5,11-dihydro-5,5-dimethyl-[1]benzothiepino[4,3-b]pyridin-11-ylidene)-1-(4-pyridine-acetyl)piperidine-6,6-dioxide N1-oxide], the IC50 is more than 1.1 µM.

Consider `O=C(Cc1ccncc1)N1CCN(C2c3ccc(Cl)cc3[S+]([O-])Cc3cccnc32)CC1` (stereo not drawn) [Example 31, 4-(8-Chloro-5,11-dihydro-[1]benzothiepino[4,3-b]pyridin-11-yl)-1-(4-pyridine-acetyl)piperazine-6-oxide], for which the IC50 was 5 µM.

For `O=C(CC1CCNCC1)N1CCC(=C2c3ccc(Cl)cc3S(=O)(=O)Cc3cccnc32)CC1` [Example 28, 4-(8-Chloro-5,11-dihydro-[1]benzothiepino[4,3-b]pyridin-11-ylidene)-1-(4-piperidine-acetyl)piperidine-6,6-dioxide], the IC50 is more than 1.2 µM.

On to `N#CN=C(NCc1ccc[n+]([O-])c1)N1CCC(=C2c3ccc(Cl)cc3SCc3cccnc32)CC1` [Example 24], for which the IC50 is 0.038 µM.

With `O=C(Cc1ccncc1)N1CCC(=C2c3ccc(Cl)cc3SCc3cccnc32)CC1` [Example 25, 4-(8-Chloro-5,11-dihydro[1]benzothiepino[4,3-b]pyridin-11-ylidene)-1-(pyridine-4-acetyl)-piperidine], the IC50 was 0.19 µM.

For the compound `CSC(=NC#N)N1CCN(C2c3ccc(Cl)cc3N(C)Cc3cccnc32)CC1` (stereo not drawn) [Example 36, Methyl 4-(8-chloro-6,11-dihydro-6-methyl-5H-pyrido[3,2-c][1]benzazepin-11-yl)-N-cyano-1-piperazinecarboximidothioate], the half-maximal inhibitory concentration (IC50) is 1.1 µM.

On to `O=C(Cc1ccccc1[N+](=O)[O-])C(=O)N1CCN(C2c3ccc(Cl)cc3SCc3cccnc32)CC1` (stereo not drawn) [Example 13], for which the IC50 is 3.8 µM.

`O=C(Cc1cc[n+]([O-])cc1)N1CCN(C2c3ccc(Cl)cc3SCc3cccnc32)CC1` (stereo not drawn) [Example 9A, 4-(8-Chloro-5,11-dihydro-[1]benzothiepino[4,3-b]pyridin-11-yl)-1-(4-pyridine-acetyl)piperazine N1-oxide]: the IC50 was 0.79 µM.

On to `O=C(Cc1cccnc1)N1CCC(=C2c3ccc(Cl)cc3OCc3cccnc32)CC1` [Example 6, 4-(8-Chloro-5,11-dihydro[1]benz-oxepino[4,3-b]pyridin-11-ylidene)-1-(3-pyridine-acetyl)piperidine], for which the IC50 was 2.3 µM.

For the compound `N#CN=C(NCc1ccc[n+]([O-])c1)N1CCN(C2c3ccc(Cl)cc3SCc3cccnc32)CC1` (stereo not drawn) [Example 21, 4-(8-Chloro-5,11-dihydro[1]benzothiepino[4,3-b]pyridin-11-yl)-N-cyano-N'-(3-pyridinylmethyl)-1-piperazine-carboximidamide N1-oxide], the IC50 was 0.14 µM.

As for `O=C(CC1CCNCC1)N1CCC(=C2c3ccc(Cl)cc3SCc3cccnc32)CC1` [Example 12B, 4-(8-Chloro-5,11-dihydro-[1]benzothiepino[4,3-b]pyridin-11-ylidene)-1-(4-pipeeridine-acetyl)piperidine], the IC50 is 0.59 µM.

Take `CC(C)(C)OC(=O)N1CCC(CC(=O)N2CCC(=C3c4ccc(Cl)cc4SCc4cccnc43)CC2)CC1` [Example 11B, 1,1 -Dimethylethyl 4-[2-[4-(8-chloro-5,11-dihydro-[1]benzothiepino[4,3-b]pyridin-11-ylidene)-1-piperidinyl]2-oxoethyl]-1-piperidine-carboxylate]: the IC50 is 3.2 µM.

Regarding `N#CNC(=NCc1ccncc1)N1CCC(=C2c3ccc(Cl)cc3SCc3cccnc32)CC1` [Example 23, 4-(8-Chloro-5,11-dihydro[1]benzothiepino[4,3-b]pyridin-11-ylidene)-N-cyano-N'-(4-pyridinylmethyl)-1-piperidine-carboximidamide], the half-inhibitory concentration (IC50) was 0.043 µM.

Turning to `O=C(Cc1cc[n+]([O-])cc1)N1CCN(C2c3ccc(Cl)cc3S(=O)(=O)Cc3cccnc32)CC1` (stereo not drawn) [Example 17A (sulfone), 4-(8-Chloro-5,11-dihydro-[1]benzothiepino[4,3-b]pyridin-11-yl)-1-(4-pyridine-acetyl)piperazine N1,6,6-trioxide], the IC50 was 3.4 µM.

Regarding `CN1Cc2cccnc2C(N2CCN(C(=O)CC3CCNCC3)CC2)c2ccc(Cl)cc21` (stereo not drawn) [Example 39, 4-(8-Chloro-6,11-dihydro-6-methyl-5H-pyrido[3,2-c][1]benzazepin-11-yl)-1-(4-piperidine-acetyl)piperazine], the IC50 was more than 1.3 µM.

With `N#CN=C(NCc1ccc2c(c1)OCO2)N1CCN(C2c3ccc(Cl)cc3SCc3cccnc32)CC1` (stereo not drawn) [Example 20A, N-[(1,3-Benzodioxol-5-yl)methyl]-4-(8-chloro-5,11-dihydro[1]benzothiepino[4,3-b]pyridin-11-yl)-N'-cyano-1-piperazine-carboximidamide], the IC50 is more than 0.37 µM.

In the case of `NC(=O)N1CCC(CC(=O)N2CCN(C3c4ccc(Cl)cc4[S+]([O-])Cc4cccnc43)CC2)CC1` (stereo not drawn) [Example 32, 4-[2-[4-(8-Chloro-5,11-dihydro-[1]benzothiepino[4,3-b]pyridin-11-yl)-1-piperazinyl]-2-oxoethyl]-1-piperidinecarboxamide 6-oxide], the IC50 was more than 0.38 µM.

As for `CC(C)(C)OC(=O)N1CCC(CC(=O)N2CCN(C3c4ccc(Cl)cc4SCc4cccnc43)CC2)CC1` (stereo not drawn) [Example 11A, 1,1-Dimethylethyl 4-[2-[4-(8-chloro-5,11-dihydro-[1]benzothiepino[4,3-b]pyridin-11-yl)-1-piperazinyl]2-oxoethyl]-1-piperidinecarboxylate], the IC50 is more than 1.1 µM.

Usually IC50 stands for the concentration that gives 50% inhibition.
